Reference: the NIST ThermoML archive (doi:10.1021/acs.jced.6b00686)
Numbers after ± are expanded uncertainties.

Assay: refractive index (Na D-line) (dimensionless)
Conditions: 293.15 K; 101.3 kPa; Liquid; Standard Abbe refractometry

refractive index | SMILES
1.3887 ± 0.0005 | CCCCOC=O [butyl methanoate]
1.3327 ± 0.0005 | O [water]

Further lines, the compound ahead of its results:

SMILES | refractive index
O=C(O)CS [2-mercaptoacetic acid] | 1.5027 ± 0.0005
CC(=O)OCC(C)C [2-methylpropyl ethanoate] | 1.3905 ± 0.0005
CCCCOC(C)=O [butyl ethanoate] | 1.394 ± 0.0005
